Measured values reported in patent US10556907B2 (AbbVie Inc., priority 2015, dated 2020).
pEC50: −log10 of the molar value. Structures can show the parent of a compound that is named as a salt.

How the values were obtained:
Experiment in all cases: Method 1: intracellular Ca2+ release (FLIPR, Calcium 5) in recombinant CHO-K1 cells
Type in all cases: cell-based
[1] = molecular target: T1, human S1PR1 receptor (Homo sapiens, UniProt P21453); settings: (1): determined with method 1; read-out: S1P1 EC50
T1 construct: host or cells: CHO-K1
T1 sequence (P21453 whole entry): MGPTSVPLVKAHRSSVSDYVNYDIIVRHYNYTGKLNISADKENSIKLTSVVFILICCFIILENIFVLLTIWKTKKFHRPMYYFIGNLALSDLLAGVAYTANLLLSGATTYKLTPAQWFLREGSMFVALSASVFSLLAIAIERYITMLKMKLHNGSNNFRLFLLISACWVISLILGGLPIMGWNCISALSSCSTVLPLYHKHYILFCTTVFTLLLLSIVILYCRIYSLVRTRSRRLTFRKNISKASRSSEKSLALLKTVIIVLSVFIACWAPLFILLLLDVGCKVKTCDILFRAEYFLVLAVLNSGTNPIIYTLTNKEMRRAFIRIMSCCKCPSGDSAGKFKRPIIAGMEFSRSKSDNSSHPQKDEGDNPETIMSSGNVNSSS
In short: (§1)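 Agonist EC50 values come from nonlinear fits of FLIPR Ca2+ fluorescence, normalized to the phospho-fingolimod reference curve. Recombinant CHO-K1 (receptor plus Gq/i5, aequorin) dye-loaded 1 h at 37° C in pH 7.4 Hepes/probenecid/BSA buffer. Antagonist mode: 10 min preincubation before phospho-fingolimod at EC80.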

[2] = molecular target: T2, human S1PR3 receptor (Homo sapiens, UniProt Q99500); settings: (1): determined with method 1; read-out: S1P3 EC50
T2 construct: host or cells: CHO-K1
T2 sequence (Q99500 whole entry): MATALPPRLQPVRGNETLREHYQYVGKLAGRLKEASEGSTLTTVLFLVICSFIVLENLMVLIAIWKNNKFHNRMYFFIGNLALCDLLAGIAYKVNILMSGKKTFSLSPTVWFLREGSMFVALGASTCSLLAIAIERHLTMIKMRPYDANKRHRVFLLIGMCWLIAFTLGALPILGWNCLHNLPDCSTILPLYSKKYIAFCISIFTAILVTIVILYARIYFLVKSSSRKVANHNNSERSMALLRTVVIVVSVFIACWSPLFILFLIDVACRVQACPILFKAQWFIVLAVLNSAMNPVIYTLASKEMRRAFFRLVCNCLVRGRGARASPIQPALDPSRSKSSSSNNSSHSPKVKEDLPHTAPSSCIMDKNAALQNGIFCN
In short: as §1

[3] = molecular target: T3, human S1PR4 receptor (Homo sapiens, UniProt O95977); settings: (1): determined with method 1; read-out: S1P4 EC50
T3 construct: host or cells: CHO-K1
T3 sequence (O95977 1-384): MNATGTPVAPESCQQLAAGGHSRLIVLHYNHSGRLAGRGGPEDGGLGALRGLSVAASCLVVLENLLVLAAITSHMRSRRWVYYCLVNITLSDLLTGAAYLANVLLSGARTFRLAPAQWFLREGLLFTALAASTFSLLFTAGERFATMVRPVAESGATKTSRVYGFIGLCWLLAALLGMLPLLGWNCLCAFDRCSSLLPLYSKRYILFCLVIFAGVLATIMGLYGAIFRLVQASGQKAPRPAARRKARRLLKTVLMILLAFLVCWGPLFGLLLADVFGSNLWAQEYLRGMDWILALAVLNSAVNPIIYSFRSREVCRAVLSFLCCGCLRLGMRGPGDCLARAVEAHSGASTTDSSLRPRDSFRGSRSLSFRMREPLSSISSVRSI
In short: as §1

[4] = molecular target: T4, human S1PR5 receptor (Homo sapiens, UniProt Q9H228); settings: agonist potency, determined with method 1 (symbols A-D); read-out: S1P5 EC50 range
T4 construct: host or cells: CHO-K1
T4 sequence (Q9H228 whole entry): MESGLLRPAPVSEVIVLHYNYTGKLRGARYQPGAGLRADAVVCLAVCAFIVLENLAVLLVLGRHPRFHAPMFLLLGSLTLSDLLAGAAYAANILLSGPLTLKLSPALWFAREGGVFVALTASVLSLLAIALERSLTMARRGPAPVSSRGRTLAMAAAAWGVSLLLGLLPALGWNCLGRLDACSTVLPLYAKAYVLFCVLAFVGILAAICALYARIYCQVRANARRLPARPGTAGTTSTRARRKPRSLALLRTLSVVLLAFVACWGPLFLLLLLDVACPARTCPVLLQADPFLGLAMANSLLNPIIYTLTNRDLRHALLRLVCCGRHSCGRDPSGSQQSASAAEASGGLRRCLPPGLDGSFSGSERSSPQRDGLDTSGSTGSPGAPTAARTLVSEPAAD
In short: as §1

Row | Structure (SMILES) | pEC50 [1] | pEC50 [2] | pEC50 [3] | pEC50 [4]
1 | Cc1ccc(COc2ccc(-c3ncc4c(n3)CCN(CC(C)CC(=O)O)C4)cc2)cc1C(F)(F)F (stereo not shown) [Compound 247, 3-methyl-4-[2-[4-[[4-methyl-3-(trifluoromethyl)phenyl]methoxy]phenyl]-7,8-dihydro-5H-pyrido[4,3-d]pyrimidin-6-yl]butanoic acid 2,2,2-trifluoroacetic acid salt] | < 6.00 | < 6.00 | < 6.00 | > 8.00
2 | Cc1c(COc2ccc(-c3ncc4c(n3)CCN(CC(C)CC(=O)O)C4)cc2)cccc1C(F)(F)F (stereo not shown) [Compound 246, 3-methyl-4-[2-[4-[[2-methyl-3-(trifluoromethyl)phenyl]methoxy]phenyl]-7,8-dihydro-5H-pyrido[4,3-d]pyrimidin-6-yl]butanoic acid 2,2,2-trifluoroacetic acid salt] | < 6.00 | < 6.00 | < 6.00 | > 8.00
3 | O=C(O)CC1(CN2CCc3nc(-c4ccc(OCc5cccc(Cl)c5)cc4)ncc3C2)CC1 [Compound 285, 2-((4(2-(4-((3-chlorobenzyl)oxy)phenyl)-7,8-dihydropyrido[4,3-d]pyrimidin-6(5H)-yl)methyl)cyclopropyl)acetic acid] | < 6.00 | < 6.00 | > 6.00 | 6.00 to 7.00
4 | O=C(O)CC1(CN2CCc3nc(-c4ccc(OCc5ccc(Cl)cc5)cc4)ncc3C2)CC1 [Compound 281, 2-((4(2-(4-((4-chlorobenzyl)oxy)phenyl)-7,8-dihydropyrido[4,3-d]pyrimidin-6(5H)-yl)methyl)cyclopropyl)acetic acid] | < 6.00 | < 6.00 | < 6.00 | 7.00 to 8.00
5 | O=C(O)CCN1CCc2nc(-c3ccc(OCc4c(Cl)cccc4Cl)cc3)c(F)cc2C1 [Compound 192, 3-(2-(4-((2,6-dichlorobenzyl)oxy)phenyl)-3-fluoro-7,8-dihydro-1,6-naphthyridin-6(5H)-yl)propanoic acid] | < 6.00 | < 6.00 | < 6.00 | > 8.00
6 | CSc1ccc(COc2ccc(-c3ncc4c(n3)CCN(CC(C)CC(=O)O)C4)cc2)cc1 (stereo not shown) [Compound 257, 3-methyl-4-[2-[4-[(4-methylsulfanylphenyl)methoxy]phenyl]-7,8-dihydro-5H-pyrido[4,3-d]pyrimidin-6-yl]butanoic acid 2,2,2-trifluoroacetic acid salt] | < 6.00 | < 6.00 | < 6.00 | 7.00 to 8.00
7 | CC(CC(=O)O)CN1CCc2nc(-c3ccc(OCc4ccccc4C(F)(F)F)cc3F)ncc2C1 (stereo not shown) [Compound 260, 4-[2-[2-fluoro-4-[[2-(trifluoromethyl)phenyl]methoxy]phenyl]-7,8-dihydro-5H-pyrido[4,3-d]pyrimidin-6-yl]-3-methyl-butanoic acid 2,2,2-trifluoroacetic acid salt] | < 6.00 | < 6.00 | < 6.00 | 7.00 to 8.00
8 | CC(C)(C)c1ccc(COc2ccc(-c3ncc4c(n3)CCN(CCC(=O)O)C4)cc2)cc1 [Compound 87, 3-(2-(4-((4-(tert-butyl)benzyl)oxy)phenyl)-7,8-dihydropyrido[4,3-d]pyrimidin-6(5H)-yl)propanoic acid] | < 6.00 | < 6.00 | < 6.00 | 7.00 to 8.00
9 | Cc1cc(COc2ccc(-c3ccc4c(n3)CCN(CCC(=O)O)C4)cc2)cc(OC(F)(F)F)c1 [Compound 160, 3-(2-(4-((3-trifluoromethoxy-5-(methyl)benzyl)oxy)phenyl)-7,8-dihydro-1,6-naphthyridin-6(5H)-yl)propanoic acid] | < 6.00 | < 6.00 | < 6.00 | 7.00 to 8.00

Second part, the molecule after the results:

Row | pEC50 [1] | pEC50 [2] | pEC50 [3] | pEC50 [4] | Structure (SMILES)
10 | < 6.00 | < 6.00 | < 6.00 | > 8.00 | Cc1ccccc1COc1ccc(-c2ncc3c(n2)CCN(CC(C)CC(=O)O)C3)cc1C (stereo not shown) [Compound 239]
11 | < 6.00 | < 6.00 | < 6.00 | > 8.00 | CC(CC(=O)O)CN1CCc2nc(-c3ccc(OCc4ccccc4F)cc3F)ncc2C1 (stereo not shown) [Compound 242, 4-[2-[2-fluoro-4-[(2-fluorophenyl)methoxy]phenyl]-7,8-dihydro-5H-pyrido[4,3-d]pyrimidin-6-yl]-3-methyl-butanoic acid 2,2,2-trifluoroacetic acid salt]
12 | < 6.00 | < 6.00 | < 6.00 | > 8.00 | CC(CN1CCc2nc(-c3ccc(OCc4cc(Cl)cc(Cl)c4)cc3)ncc2C1)C(=O)O (stereo not shown) [Compound 17, 3-(2-(4-((3,5-dichlorobenzyl)oxy)phenyl)-7,8-dihydropyrido[4,3-d]pyrimidin-6(5H)-yl)-2-methylpropanoic acid]
13 | < 6.00 | < 6.00 | < 6.00 | 6.00 to 7.00 | O=C(O)C1(CN2CCc3nc(-c4ccc(OCc5cccc(Cl)c5)cc4)ncc3C2)CC1 [Compound 1, 1-((2-(4-((3-chlorobenzyl)oxy)phenyl)-7,8-dihydropyrido[4,3-d]pyrimidin-6(5H)-yl)methyl)cyclopropanecarboxylic acid]
14 | < 6.00 | < 6.00 | < 6.00 | 7.00 to 8.00 | CC(CC(=O)O)CN1CCc2nc(-c3ccc(OCc4ccccc4Cl)cc3F)ncc2C1 (stereo not shown) [Compound 284, 4-[2-[4-[(2-chlorophenyl)methoxy]-2-fluoro-phenyl]-7,8-dihydro-5H-pyrido[4,3-d]pyrimidin-6-yl]-3-methyl-butanoic acid 2,2,2-trifluoroacetic acid salt]
15 | > 6.00 | < 6.00 | > 6.00 | > 8.00 | CC(CC(=O)O)CN1CCc2nc(-c3ccc(OCc4cccc(C(F)(F)F)c4)cc3)ncc2C1 (stereo not shown) [Compound 238, 3-methyl-4-(2-(4-((3-(trifluoromethyl)benzyl)oxy)phenyl)-7,8-dihydropyrido[4,3-d]pyrimidin-6(5H)-yl)butanoic acid]
16 | < 6.00 | < 6.00 | < 6.00 | > 8.00 | CC(CC(=O)O)CN1CCc2nc(-c3ccc(OCc4ccc(Cl)cc4)cc3)ncc2C1 (racemic) [Compound 23, 4-(2-(4-((4-chlorobenzyl)oxy)phenyl)-7,8-dihydropyrido[4,3-d]pyrimidin-6(5H)-yl)-3-methylbutanoic acid]
17 | < 6.00 | < 6.00 | < 6.00 | > 8.00 | O=C(O)CCN1CCc2nc(-c3ccc(OCc4ccccc4)cc3)cnc2C1 [Compound 177, 3-(2-(4-(benzyloxy)phenyl)-7,8-dihydropyrido[3,4-b]pyrazin-6(5H)-yl)propanoic acid]
18 | < 6.00 | < 6.00 | < 6.00 | > 8.00 | Cc1ccc(C(F)(F)F)cc1COc1ccc(-c2ncc3c(n2)CCN(CCC(=O)O)C3)cc1 [Compound 88, 3-(2-(4-((2-methyl-5-(trifluoromethyl)benzyl)oxy)phenyl)-7,8-dihydropyrido[4,3-d]pyrimidin-6(5H)-yl)propanoic acid]
19 | < 6.00 | < 6.00 | < 6.00 | > 8.00 | O=C(O)CCN1CCc2nc(-c3ccc(OCc4ccc(OC(F)(F)F)cc4)cc3)ncc2C1 [Compound 85, 3-(2-(4-((4-(trifluoromethoxy)benzyl)oxy)phenyl)-7,8-dihydropyrido[4,3-d]pyrimidin-6(5H)-yl)propanoic acid]
